Laboratory results published in patent publication US8383617B2, “Treatment of protein aggregation diseases” (priority 2007, dated 2013).
Values joined by “and” are separate entries in the source; they are usually repeats but may differ in a detail not shown here. Equal entries are not always repeated.

How the values were obtained:
[1] = biological target: Synthetic beta-amyloid peptide 1-40 (Homo sapiens, UniProt P05067); experiment: Seprion assay screen for compounds that affect amyloid aggregation; assay type: biochemical; details: test compounds at 1 mM; for Relative aggregation compared to 'no compound' aggregation control: peptide 2.8 μg/ml, 30 min at 37° C., Seprion assay signal
Synthetic beta-amyloid peptide 1-40, sequence (P05067 672-711): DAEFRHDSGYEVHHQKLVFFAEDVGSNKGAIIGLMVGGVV

beta-amyloid 1-40 [2] = biological target: T1, beta-amyloid 1-40 (Homo sapiens, UniProt P05067); experiment: Seprion assay of brain extracts of treated hAPP(751) mice, beta-amyloid 1-40; assay type: in vivo; details: SDS extracts of brain; daily oral from 2 to 6 months of age; fluphenazine 0.5 mg/Kg, trimipramine 25 mg/Kg; one value per animal
T1 construct: These mice develop increased amounts of beta-amyloid 1-40 and 1-42 in the brain; from tissue; host or cells: brain extracts of hAPP(751) transgenic mice
T1 sequence (P05067 672-711): as above

beta-amyloid 1-40 [3] = biological target: T1, beta-amyloid 1-40; experiment: ELISA of brain extracts of treated hAPP(751) mice, beta-amyloid 1-40; assay type: in vivo; details: daily oral from 2 to 6 months of age, fluphenazine 0.5 mg/Kg, trimipramine 25 mg/Kg, one value per animal
beta-amyloid 1-42 [4] = biological target: T2, beta-amyloid 1-42 (Homo sapiens, UniProt P05067); experiment: Seprion assay of brain extracts of treated hAPP(751) mice, beta-amyloid 1-42; assay type: in vivo; details: SDS extracts of brain; daily oral from 2 to 6 months of age; fluphenazine 0.5 mg/Kg, trimipramine 25 mg/Kg; one value per animal
T2 construct: ELISA and Seprion assay for amyloid — 1-40 and 1-42 on the SDS extracts; from tissue; host or cells: brain extracts of hAPP(751) transgenic mice
T2 sequence (P05067 672-713): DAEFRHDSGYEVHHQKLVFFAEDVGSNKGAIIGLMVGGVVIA

beta-amyloid 1-42 [5] = biological target: T2, beta-amyloid 1-42; experiment: ELISA of brain extracts of treated hAPP(751) mice, beta-amyloid 1-42; assay type: in vivo; details: daily oral from 2 to 6 months of age, fluphenazine 0.5 mg/Kg, trimipramine 25 mg/Kg, one value per animal
amyloid plaques = experiment: Immunohistochemistry of brains of treated hAPP(751) mice for amyloid plaques; assay type: in vivo; details: immunohistochemistry of brain; daily oral from 2 to 6 months of age; fluphenazine 0.5 mg/Kg, trimipramine 25 mg/Kg
[6] = biological target: Synthetic beta-amyloid peptide (Homo sapiens, UniProt P05067); experiment: PAGE and silver staining of aggregation reactions incubated with compounds; assay type: biochemical; details: peptide incubated in the presence of compound, FIG. 2
Synthetic beta-amyloid peptide, sequence (P05067 672-711): as the sequence (P05067 672-711) above

[7] = Therapy of a patient with Gerstman-Straussler-Scheinker (GSS) syndrome; details: intraventricular, before the combination therapy

Question: With `Clc1ccc2c(c1)C(N1CCNCC1)=Nc1ccccc1O2` [Amoxapine, amoxapine] as the compound, how does the “Relative aggregation compared to 'no compound' aggregation control” value [1] read?
Answer: 119%

Question: With `CN1CCN(CC/C=C2/c3ccccc3Sc3ccc(S(=O)(=O)N(C)C)cc32)CC1` [Cis-thiothixene, cis-thiothixene] as the compound, how does the “Relative aggregation compared to 'no compound' aggregation control” value [1] read?
Answer: 42%

Question: Which “Relative aggregation compared to 'no compound' aggregation control” value [1] does the source give for `OCCN1CCN(CCC=C2c3ccccc3Sc3ccc(C(F)(F)F)cc32)CC1` [Flupenthixol, cis-(Z)-flupenthixol] here?
Answer: 48.2%

Question: For `OCCN1CCN(CCCN2c3ccccc3Sc3ccc(C(F)(F)F)cc32)CC1` [Fluphenazine, fluphenazine], which “Seprion assay beta-amyloid 1-40 OD420 nm” value (beta-amyloid 1-40 [2]) is on record?
Answer: 0.18 OD420 nm and 0.09 OD420 nm

Question: And the “ELISA beta-amyloid 1-40 ng” value (beta-amyloid 1-40 [3]; SDS extracts of brain)?
Answer: 88 ng and 51 ng

Question: What about the “ELISA beta-amyloid 1-40 ng” value (beta-amyloid 1-40 [3]; formic acid extracts of brain) of the same compound?
Answer: 116 ng and 119 ng

Question: And the “Seprion assay beta-amyloid 1-42 OD420 nm” value (beta-amyloid 1-42 [4])?
Answer: 0.93 OD420 nm and 0.68 OD420 nm

Question: And the “ELISA beta-amyloid 1-42 ng” value (beta-amyloid 1-42 [5]; SDS extracts of brain)?
Answer: 295 ng and 165 ng

Question: And the “ELISA beta-amyloid 1-42 ng” value (beta-amyloid 1-42 [5]; formic acid extracts of brain)?
Answer: 143 ng and 197 ng

Question: What about the plaque reduction (amyloid plaques) of the same compound?
Answer: 23%

Question: Which “Relative aggregation compared to 'no compound' aggregation control” value [1] does the source give for `c1ccc2c(c1)Nc1ccccc1S2` [Phenothiazine] here?
Answer: 80%

Question: Which “Relative aggregation compared to 'no compound' aggregation control” value [1] does the source give for `CN(C)CCCN1c2ccccc2Sc2ccccc21.Cl` [Promazine, promazine] here?
Answer: 44.5%

Question: And the “inhibition of amyloid aggregation by PAGE and silver staining” value [6]?
Answer: inhibit the aggregation of the amyloid

Question: With `CC(CN(C)C)CN1c2ccccc2CCc2ccccc21` (centres unmarked) [Trimipramine, trimipramine] as the compound, how does the “Relative aggregation compared to 'no compound' aggregation control” value [1] read?
Answer: 259%

Question: And the “Seprion assay beta-amyloid 1-40 OD420 nm” value (beta-amyloid 1-40 [2])?
Answer: 0.11 OD420 nm and 0.58 OD420 nm and 0.14 OD420 nm and 0.10 OD420 nm

Question: And the “ELISA beta-amyloid 1-40 ng” value (beta-amyloid 1-40 [3]; SDS extracts of brain)?
Answer: 169 ng and 101 ng and 195 ng and 89 ng

Question: What about the “ELISA beta-amyloid 1-40 ng” value (beta-amyloid 1-40 [3]; formic acid extracts of brain) of the same compound?
Answer: 127 ng and 111 ng and 182 ng and 115 ng

Question: What about the “inhibition of amyloid aggregation by PAGE and silver staining” value [6] of the same compound?
Answer: inhibit the aggregation of the amyloid

Question: What about the “Seprion assay beta-amyloid 1-42 OD420 nm” value (beta-amyloid 1-42 [4]) of the same compound?
Answer: 0.26 OD420 nm and 2.26 OD420 nm and 0.98 OD420 nm and 0.64 OD420 nm

Question: What about the “ELISA beta-amyloid 1-42 ng” value (beta-amyloid 1-42 [5]; SDS extracts of brain) of the same compound?
Answer: 346 ng and 369 ng and 529 ng and 350 ng

Question: What about the “ELISA beta-amyloid 1-42 ng” value (beta-amyloid 1-42 [5]; formic acid extracts of brain) of the same compound?
Answer: 174 ng and 185 ng and 311 ng and 213 ng

Question: And the plaque reduction (amyloid plaques)?
Answer: 15%

Question: Which “effect on amyloid aggregation (in words)” value ([1]; Seprion assay screen) does the source give for `CCN(CC)CCCC(C)Nc1c2ccc(Cl)cc2nc2ccc(OC)cc12` (centres unmarked) [quinacrine] here?
Answer: not effective

Question: Which “Relative aggregation compared to 'no compound' aggregation control” value [1] does the source give for nortriptyline here?
Answer: 189%

Question: With pentosan polysulphate as the compound, how does the clinical effect [7] read?
Answer: had no effect

Question: For protryptyline [Protriptyline], which “Relative aggregation compared to 'no compound' aggregation control” value [1] is on record?
Answer: 184%
